From patent US11414450B1, “Aminoglycosides and uses thereof” (REVAGENIX, INC., priority 2017, dated 2022)
≈ marks a conversion by molar mass, not a printed value.

What was measured:
Format in all cases: cell-based
[1] = system: E. coli isogenic strain aac(6′)-Ib; assay: MIC broth microdilution, E. coli isogenic strain aac(6′)-Ib; details: for Geometric Mean MIC values, E. coli isogenic strains, aac(6′)-Ib: Table 2
Description: (§1) Minimum inhibitory concentrations for the example compounds herein are determined by the broth microdilution method in accordance with the Clinical and Laboratory Standards Institute (CLSI) guidelines. In brief, organism suspensions are adjusted to a 0.5 McFarland standard to yield a final inoculum between 3×10^5 and 7×10^5 colony-forming units (CFU)/mL. Compound dilutions and inocula are made in sterile, cation adjusted Mueller-Hinton Broth (Beckton Dickinson). The inoculum is prepared by suspension of a colony from an agar plate that is prepared the previous day. Bacteria are suspended in sterile saline and added to each assay plate to obtain a final concentration of 5×10^5 CFU/mL. An inoculum volume of 100 μL is added to wells containing 100 μL of broth with 2-fold serial dilutions of the compound. All inoculated microdilution trays are incubated in ambient air at 35° C. for 18-24 hours. Following incubation, the lowest concentration of the compound that prevents visible growth (OD 600 nm<0.05) is recorded as the MIC. […] Performance of the assay is monitored by the use of laboratory quality-control strains and a compound with a defined MIC spectrum (such as levofloxacin), in accordance with CLSI guidelines. Compounds are tested against multiple microbiologic panels. Panels include: 1) a multi-species primary screening panel that includes multiple defined AG-R mechanisms; 2) a panel of isogenic strains carrying different common mechanisms of AG-R that allows characterization of the SAR for AMEs, RMTs, and entry and efflux resistance mechanisms; and 3) panels of recent clinical isolates selected from Phase 3 studies and ongoing global surveillance.

E. coli efflux parent = assay: MIC broth microdilution, E. coli efflux parent strain; details: for Geometric Mean MIC values, E. coli efflux parent: Table 2
Description: as §1

[2] = system: E. coli isogenic strain nmpA; assay: MIC broth microdilution, E. coli isogenic strain nmpA; details: for Geometric Mean MIC values, E. coli isogenic strains, nmpA: Table 2
Description: as §1

[3] = system: E. coli isogenic strain ant(4′)-Ia; assay: MIC broth microdilution, E. coli isogenic strain ant(4′)-Ia; details: for Geometric Mean MIC values, E. coli isogenic strains, ant(4′)-Ia: Table 2
Description: as §1

[4] = system: E. coli isogenic strain aph(3′)-Ia; assay: MIC broth microdilution, E. coli isogenic strain aph(3′)-Ia; details: for Geometric Mean MIC values, E. coli isogenic strains, aph(3′)-Ia: Table 2, aph(3′)-Ia has activity at both the 3′-hydroxy and 5″-hydroxy positions
Description: as §1

[5] = system: E. coli Δefflux (tolC efflux pump knocked-out); assay: MIC broth microdilution, E. coli Δefflux strain (tolC knocked out)
Description: as §1

[6] = system: E. coli isogenic strain empty vector; assay: MIC broth microdilution, E. coli isogenic strain, empty vector; details: for Geometric Mean MIC values, E. coli isogenic strains, empty vector: Table 2
Description: as §1

[7] = system: E. coli isogenic strain armA; assay: MIC broth microdilution, E. coli isogenic strain armA; details: for Geometric Mean MIC values, E. coli isogenic strains, armA: Table 2
Description: as §1

[8] = system: E. coli isogenic strain aph(3′)-II; assay: MIC broth microdilution, E. coli isogenic strain aph(3′)-II; details: for Geometric Mean MIC values, E. coli isogenic strains, aph(3′)-II: Table 2
Description: as §1

E. coli ATCC 25922 = assay: Minimum inhibitory concentration (broth microdilution, CLSI), E. coli ATCC 25922; details: for Geometric Mean MIC values, E. coli ATCC 25922: Table 2
Description: as §1

| Compound | Geometric Mean MIC values, E. coli isogenic strains, aac(6′)-Ib [1] | Geometric Mean MIC values, E. coli efflux parent (E. coli efflux parent) | Geometric Mean MIC values, E. coli isogenic strains, nmpA [2] | Geometric Mean MIC values, E. coli isogenic strains, ant(4′)-Ia [3] | Geometric Mean MIC values, E. coli isogenic strains, aph(3′)-Ia [4] | Geometric Mean MIC values, E. coli Δefflux ([5]; Table 2) | Geometric Mean MIC values, E. coli isogenic strains, empty vector [6] | Geometric Mean MIC values, E. coli isogenic strains, armA [7] | Geometric Mean MIC values, E. coli isogenic strains, aph(3′)-II [8] | Geometric Mean MIC values, E. coli ATCC 25922 (E. coli ATCC 25922) | MIC ([1]; Escherichia coli, read-out: Geometric Mean MIC values, E. coli isogenic strains aac(6′)-Ib) | MIC (E. coli efflux parent; Escherichia coli, E. coli efflux parent strain, read-out: Geometric Mean MIC values, E. coli efflux parent) | MIC ([2]; Escherichia coli, read-out: Geometric Mean MIC values, E. coli isogenic strains npmA) | MIC ([3]; Escherichia coli, read-out: Geometric Mean MIC values, E. coli isogenic strains ant(4′)-Ia) | MIC ([4]; Escherichia coli, read-out: Geometric Mean MIC values, E. coli isogenic strains aph(3′)-Ia) | Geometric Mean MIC values, E. coli Δefflux ([5]; E. coli Δefflux) | MIC ([6]; Escherichia coli, read-out: Geometric Mean MIC values, E. coli isogenic strains empty vector) | MIC ([7]; Escherichia coli, read-out: Geometric Mean MIC values, E. coli isogenic strains armA) | MIC ([8]; Escherichia coli, read-out: Geometric Mean MIC values, E. coli isogenic strains aph(3′)-II) | MIC (E. coli ATCC 25922; Escherichia coli, ATCC25922, E. coli ATCC 25922, broth microdilution, read-out: Geometric Mean MIC values, E. coli ATCC 25922) |
| --- | --- | --- | --- | --- | --- | --- | --- | --- | --- | --- | --- | --- | --- | --- | --- | --- | --- | --- | --- | --- |
| CCC(N)C1CCC(N)C(OC2C(N)CC(N)C(O)C2OC2OC(CO)C(OC3OC(CN)C(O)C(O)C3N)C2O)O1 (stereo not drawn) [drawing 860] | 1.3 µg/mL | 1.4 µg/mL | >64 µg/mL | 1 µg/mL | >64 µg/mL | 0.71 µg/mL | 1 µg/mL | 3.2 µg/mL | 1 µg/mL | 2 µg/mL | – | – | – | – | – | – | – | – | – | – |
| NCC1OC(OC2C(CO)OC(OC3C(O)C(N)CC(N)C3OC3OC(CN)C(O)C(F)C3N)C2O)C(N)C(O)C1O (stereo not drawn) [drawing 866] | 8 µg/mL | 1.4 µg/mL | >64 µg/mL | 8 µg/mL | >64 µg/mL | 0.71 µg/mL | 0.63 µg/mL | 1.4 µg/mL | 1 µg/mL | 1.3 µg/mL | – | – | – | – | – | – | – | – | – | – |
| NCC1OC(OC2C(CO)OC(OC3C(O)C(N)CC(N)C3OC3OC(CN)C(O)C(F)C3N)C2O)C(N)C(O)C1O (stereo not drawn) [drawing 868] | >64 µg/mL | 8 µg/mL | >64 µg/mL | 32 µg/mL | >64 µg/mL | 4 µg/mL | 16 µg/mL | 64 µg/mL | 8 µg/mL | 16 µg/mL | – | – | – | – | – | – | – | – | – | – |
| NCC1CCC(N)C(OC2C(N)CC(N)C(O)C2OC2OC(CO)C(OC3OC(CN)C(O)C(O)C3N)C2O)O1 (stereo not drawn) [drawing 856, reference compound] | 5.7 µg/mL | 0.87 µg/mL | >64 µg/mL | 0.5 µg/mL | 64 µg/mL | 0.87 µg/mL | 0.61 µg/mL | 0.74 µg/mL | 0.35 µg/mL | 1.1 µg/mL | – | – | – | – | – | – | – | – | – | – |
| NC[C@@H]1CC[C@@H](N)[C@@H](O[C@@H]2[C@@H](N)[C@H](O)[C@@H](N)[C@H](O)[C@H]2O[C@@H]2O[C@H](CO)[C@@H](O[C@H]3O[C@@H](CN)[C@@H](O)[C@H](O)[C@H]3N)[C@H]2O)O1 [drawing 888] | – | – | – | – | – | – | – | – | – | – | 16 µg/mL (≈ 26.7 µM) | 0.5 µg/mL (≈ 0.835 µM) | > 64 µg/mL | 0.5 µg/mL (≈ 0.835 µM) | > 64 µg/mL | 0.5 µg/mL | 0.5 µg/mL (≈ 0.835 µM) | 4 µg/mL (≈ 6.68 µM) | 0.5 µg/mL (≈ 0.835 µM) | 1 µg/mL (≈ 1.67 µM) |
| NCC1OC(OC2C(CO)OC(OC3C(O)C(N)CC(N)C3OC3OC(CN)C(O)C(F)(F)C3N)C2O)C(N)C(O)C1O (stereo not drawn) [drawing 870] | >64 µg/mL | 4 µg/mL | >64 µg/mL | 8 µg/mL | >64 µg/mL | 2 µg/mL | 4 µg/mL | 32 µg/mL | 4 µg/mL | 5 µg/mL | – | – | – | – | – | – | – | – | – | – |
